According to patent publication US20110229437A1, “Method of Treating Asthma with Antiviral Agents” (priority 2009, published 2011):

Experiments:
[1] = Case report: asthma symptoms of an adult with history of asthma after a 5 day course of Tamiflu; conditions: one patient
Description: They had been using Advair® two inhalations a day or Symbicort® four puffs a day. Advair® is a combination formulation containing fluticasone propionate (a corticosteroid) and salmeterol xinafoate (a long-acting β2-adrenergic receptor agonist). Symbicort® contains two active ingredients which are delivered via a single inhaler: budesonide, a corticosteroid, and formoterol, a long-acting β2-agonist.
Singulair® contains montelukast, a leukotriene receptor antagonist (LTRA) used for the maintenance treatment of asthma and to relieve symptoms of seasonal allergies.

[2] = Case report: flu like symptoms of the same adult under Tamiflu; format: in vivo, human; conditions: Tamiflu 75 mg by mouth twice a day

Compound	side effects in the patient ([1]; used for years)	asthma symptoms ([1]; during/after Tamiflu 75 mg by mouth twice a day for 5 days)	level of asthmatic relief compared with prednisone 60 mg per day, reported by the patient ([1]; five weeks after using Tamiflu)	time until fatigue resolved ([2]; one patient)	time until feeling better and myalgias relieved ([2]; one patient)	fever after start of treatment ([2]; dropped from 39 C.° within 1.5 days)
CC(C)(O)c1ccccc1CC[C@@H](SCC1(CC(=O)O)CC1)c1cccc(/C=C/c2ccc3ccc(Cl)cc3n2)c1 [Singulair, montelukast]	no side effects	–	–	–	–	–
CCOC(=O)C1=C[C@@H](OC(CC)CC)[C@H](NC(C)=O)[C@@H](N)C1 [Tamiflu, Oseltamivir phosphate]	–	diminished	similar	≤ 1.5 days	≤ 12 h	38 C.°
